# Measured values from patent US10046150B2, “Lysine delivery systems for blood coagulation” (Park City Bio, LLC, priority 2013, dated 2018).
# Tested on: nose bleed
# Assay: treatment of a nose bleed with a nose plug (tissue, gauze or absorbent body) carrying lysine powder
# Type: in vivo
# Description: As a control, regular tissue and regular gauze were used to treat a nose bleed by rolling or otherwise fashioning a nose plug from the materials, and no lysine was added. The tissues and gauze appear to absorb the blood, but the blood continues to flow. In some instances, the blood flow can be significant and require a large number of sequential tissues or gauze. Nose bleeds treated with tissues can last 10 minutes or more up to an hour or longer when the bleed is significant. In some instances a nose bleed can be from both nostrils and both nostrils have to be plugged with a nose plug.
# The nose bleed often stops within 1 minute when the tissue includes lysine, compared a long period when only tissues are used. A significant bleed was stopped within 5 minutes when lysine was included in the gauze. […] Available lysine was present after the nose bleed was treated to stop blood flow. […] Accordingly, substantially less than 500 mg lysine (E.g., 5 mg) is needed to stop bleeding in a short time. The device including the tissue and the lysine powder is able to be withdrawn with the blood no longer flowing through the nose.
# Additionally, there was still excess powder. The gauze was rolled up with the lysine powder at one end, and the lysine powder was inserted into the nose, then the gauze was released and allowed to expand and plug the nose.
# FIG. 12—illustrate an embodiment of a method of making a blood coagulating device with a lysine reservoir. […] The gauze is not hemostatic (Walgreens Premium Rolled Gauze—for secure dressings and light absorption. The device is made by: forming an absorptive body to a size and shape of a sheet; placing lysine powder on a surface of the sheet, where the lysine may be anywhere, but shown to be placed along a center crease. Adhesive is used to stick the surface to itself when the substrate is folded at the center crease so that the folded body has the lysine at the fold. The additional adhesive is put on the surface that is showing, and the sheet is rolled into a cylindrical device. The device has the lysine in a multi-layered chamber with the lysine located at one end. […] The marked end of the controls is not inserted in the nose.
smiles,measurement,setting,value
NCCCC[C@H](N)C(=O)O [lysine],time until the nose bleed stopped,"hemostat gauze (regenerated etherized and oxidized natural fiber cellulose) having about 250 mg lysine powder, slower bleed",within a minute
same,time until the gauze could be removed,"hemostat gauze having about 250 mg lysine powder, slower bleed",just over a minute
same,effect on blood flow / bleeding (in words),nose bleed,promotes clotting
same,blood absorbed by the device (in words),"nose bleed, compared with control without lysine where stated",didn't absorb much blood
